From BindingDB's records for doi:10.1021/jm00160a056 (1986)

Target: Trifunctional purine biosynthetic protein adenosine-3 (Mus musculus) (UniProt Q64737)
Test: Compound was evaluated for the inhibition of GAR transformylase isolated from murine lymphoma cell line L5178Y

Chain of Trifunctional purine biosynthetic protein adenosine-3 (Mus musculus) (Q64737 whole entry, looked up): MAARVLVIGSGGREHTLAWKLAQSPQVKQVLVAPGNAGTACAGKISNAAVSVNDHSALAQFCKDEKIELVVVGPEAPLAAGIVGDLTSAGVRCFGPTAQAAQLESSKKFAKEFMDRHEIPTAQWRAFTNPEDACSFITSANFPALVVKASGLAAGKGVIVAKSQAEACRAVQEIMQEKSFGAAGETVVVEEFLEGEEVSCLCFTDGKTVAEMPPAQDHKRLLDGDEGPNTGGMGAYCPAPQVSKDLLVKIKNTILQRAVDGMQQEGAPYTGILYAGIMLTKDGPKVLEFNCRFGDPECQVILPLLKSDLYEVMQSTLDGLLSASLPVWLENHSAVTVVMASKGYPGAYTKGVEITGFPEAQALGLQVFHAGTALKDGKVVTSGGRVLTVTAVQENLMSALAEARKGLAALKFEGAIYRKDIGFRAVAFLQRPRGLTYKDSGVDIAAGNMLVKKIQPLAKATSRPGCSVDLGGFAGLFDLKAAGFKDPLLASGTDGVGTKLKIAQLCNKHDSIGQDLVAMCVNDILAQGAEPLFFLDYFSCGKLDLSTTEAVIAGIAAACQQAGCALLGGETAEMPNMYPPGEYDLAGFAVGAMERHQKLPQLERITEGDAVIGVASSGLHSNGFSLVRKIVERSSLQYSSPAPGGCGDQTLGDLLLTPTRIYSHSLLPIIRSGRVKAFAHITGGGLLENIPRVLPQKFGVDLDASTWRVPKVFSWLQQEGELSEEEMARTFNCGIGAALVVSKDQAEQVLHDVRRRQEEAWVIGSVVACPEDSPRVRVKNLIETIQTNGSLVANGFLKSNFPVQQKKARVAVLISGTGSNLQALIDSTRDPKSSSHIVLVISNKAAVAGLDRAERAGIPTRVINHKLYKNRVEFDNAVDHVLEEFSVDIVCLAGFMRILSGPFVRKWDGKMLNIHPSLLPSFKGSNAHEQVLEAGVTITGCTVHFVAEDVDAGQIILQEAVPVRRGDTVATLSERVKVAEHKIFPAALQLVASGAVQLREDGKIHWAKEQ

| Ki | SMILES |
| --- | --- |
| 2000 nM | Nc1nc2ccc(CNc3ccc(C(=O)NC(CCC(=O)O)C(=O)O)cc3)cc2c(=O)[nH]1 (configuration not stated) |
| 1300 nM | CC(=O)N(Cc1ccc2nc(N)[nH]c(=O)c2c1)c1ccc(C(=O)NC(CCC(=O)O)C(=O)O)cc1 (configuration not stated) [2-{4-[Acetyl-(2-amino-4-oxo-3,4-dihydro-quinazolin-6-ylmethyl)-amino]-benzoylamino}-pentanedioic acid] |
